From PubChem BioAssay (NCI)
“And” between values parts separate entries of the source, which are not always exact repeats. Identical values can stand only once.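 How tested: cells in 96-well plates exposed to compound for 48 hours at five concentrations. The concentration for 50% growth inhibition is given as GI50. At the TGI there is no net growth.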

Columns and labels:
Assay in all cases: DTP human tumour cell line panel, 48 h
A498 renal = test system: A498 renal
DU-145 prostate = test system: DU-145 prostate
HCT-116 colon = test system: HCT-116 colon
K-562 leukemia = test system: K-562 leukemia
KM12 colon = test system: KM12 colon
OVCAR-8 ovarian = test system: OVCAR-8 ovarian
SF-539 CNS = test system: SF-539 CNS
SK-MEL-2 melanoma = test system: SK-MEL-2 melanoma
SNB-75 CNS = test system: SNB-75 CNS
SW-620 colon = test system: SW-620 colon

| SMILES | TGI (A498 renal) | TGI (DU-145 prostate) | TGI (HCT-116 colon) | TGI (K-562 leukemia) | TGI (KM12 colon) | TGI (OVCAR-8 ovarian) | TGI (SF-539 CNS) | TGI (SK-MEL-2 melanoma) | TGI (SNB-75 CNS) | TGI (SW-620 colon) | GI50 (A498 renal) | GI50 (DU-145 prostate) | GI50 (HCT-116 colon) | GI50 (SF-539 CNS) | GI50 (SNB-75 CNS) |
| --- | --- | --- | --- | --- | --- | --- | --- | --- | --- | --- | --- | --- | --- | --- | --- |
| CC(=O)O[C@H]1C(=O)N(c2cc3c4ccccc4ccc3c3ccccc23)[C@@H]1c1ccccc1 | 89.6 µM | 43.9 µM | 14.4 µM | > 100 µM | 27.1 µM | 32.1 µM | 13.2 µM | 9.4 µM | 7.2 µM |  |  |  |  |  |  |
| CCCCCCOP(=O)(OCCCCCC)OC(C(=O)OC)C(F)(F)F (stereo unspecified) |  | > 100 µM | > 100 µM | > 100 µM | > 100 µM | > 100 µM | > 100 µM | > 100 µM | > 100 µM | > 100 µM |  |  |  |  |  |
| O=[N+]([O-])c1ccc(NS(=O)(=O)C(F)(F)F)cc1 | > 100 µM | > 100 µM | > 100 µM |  | > 100 µM | > 100 µM | > 100 µM | > 100 µM | > 100 µM | > 100 µM |  |  |  |  |  |
| O=C(CSc1nc2ccc(I)cc2c(=O)n1Cc1ccccc1)NN1C(=O)CCC1=O |  | > 100 µM | > 100 µM | > 100 µM | > 100 µM | > 100 µM | > 100 µM | > 100 µM | > 100 µM | > 100 µM |  |  |  |  |  |
| Cc1cc2occ(-c3ccc(Cl)cc3)c2c(=O)o1 | > 100 µM |  | > 100 µM | > 100 µM | > 100 µM | > 100 µM | > 100 µM | > 100 µM | > 100 µM | > 100 µM |  |  |  |  |  |
| CC(C)(C)CC(C)(C)c1ccc(OCCOCC[N+](C)(C)Cc2ccccc2)cc1 |  | 3.36 µM | 2.69 µM and 3.55 µM | 15.7 µM |  | 12.8 µM | 3.41 µM and 9.48 µM | 9.71 µM | 2.34 µM and 5.55 µM | 21 µM | 1540 nM | 1770 nM | 1380 nM | 1690 nM and 2880 nM | 962 nM |
| COc1ccc(-c2nc(-c3cnccn3)n(C3OC(CO)C(O)C(O)C3O)n2)cc1 (stereo unspecified) |  | > 100 µM | > 100 µM | > 100 µM | > 100 µM | > 100 µM | > 100 µM |  | > 100 µM | > 100 µM |  |  |  |  |  |
| CNc1ccc(Cl)cc1S(=O)(=O)c1ccccc1[N+](=O)[O-] | > 100 µM | > 100 µM |  | > 100 µM |  | > 100 µM | > 100 µM | > 100 µM | > 100 µM | > 100 µM |  |  |  |  |  |
| CC(C)C1CC(CO)(CNc2cc(Cl)nc(N)n2)C1 (stereo unspecified) | 65.9 µM | > 100 µM | > 100 µM | > 100 µM | > 100 µM | > 100 µM | > 100 µM | > 100 µM |  | > 100 µM |  |  |  |  |  |
| CC(=O)CC1(C)OC(N)=C(C#N)C1(C#N)C#N (stereo unspecified) | > 100 µM | > 100 µM | > 100 µM |  | > 100 µM | > 100 µM | > 100 µM | > 100 µM | > 100 µM | > 100 µM |  |  |  |  |  |
| CCCCCCCCCCCCCCCCOCC(Cl)COP(=O)(O)OP(=O)(O)OCC1OC(n2cnc3c(N)ncnc32)C(O)C1O (stereo unspecified) | > 100 µM |  | > 100 µM | > 100 µM | > 100 µM | > 100 µM | > 100 µM | > 100 µM | 89.7 µM | > 100 µM |  |  |  |  |  |
